{"source": "patent US20060216327A1", "about": "“Multilayer coating for releasing biologically-active agents and method of making” (Bacterin, Inc., priority 2005, published 2006)", "assay": "Bupivacaine elution profile from coated stents of Example 4 in PBS flow chamber (HPLC)", "format": "physicochemical", "conditions": "coated stent of Example 4 (calcium phosphate base layer + PVA polymer layer), 10 ml PBS per day", "experimental": "An elution analysis was performed to assay release of bupivacaine over time from the coated stents of Example 4. An 18 mm long test specimen having a known surface area was cut from one of the coated stents of Example 4 and placed in a flow chamber. For 7 days, the test specimen was bathed with 10 ml per day of a phosphate buffered saline (PBS) solution. Every 24 hours, a 100 μl sample was taken of the 10 ml of PBS effluent collected over the preceding 24 hour period. The amount of bupivacaine in a 10 μl aliquot of the sample was quantified using a reverse-phase high pressure liquid chromatography (HPLC) system including a […] silica column. A solution of 30% acetonitrile and 70% buffered acid (985 ml of HPLC-grade water, 15 ml 1.0 M HCl, and 1.38 grams monobasic NaH2PO4) was employed as the mobile phase for the HPLC analysis. The data from the HPLC analysis was then normalized against the surface area of the test specimen and 10 ml volume of PBS effluent. Each data point represents the amount of bupivacaine eluted into the PBS solution during the proceeding 24-hour period, with each data point expressed in terms of in μg of bupivacaine released per cm^2 of coated stent surface. […]"}
{"smiles": "CCCCN1CCCCC1C(=O)Nc1c(C)cccc1C", "note": "(centres unmarked) [bupivacaine]", "values": [{"measurement": "release of bupivacaine from coated stent into PBS solution", "setting": "days 1-3, attributed to the polymer layer", "value": "relative burst release"}, {"measurement": "release of bupivacaine from coated stent into PBS solution", "setting": "days 4-7, attributed to erosion of the calcium phosphate base layer", "value": "more gradual release"}]}
